# Source: the supplement of paper PMC10477900
# Structures can show the parent of a compound that is named as a salt.
# Tests used:
# HCT116 [1] = settings: 72 h
# Protocol: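 HCT116 control and MTA1-KO (CRISPR) HCT116 cells were seeded in 384-well plates (800 cells/well), treated 16 h later with 237 metabolism-related anticancer drugs at five doses (10 uM, 2 uM, 400 nM, 80 nM, 16 nM) for 72 h, two replicates; viability by CCK8. Values are % inhibition of viability relative to untreated cells, plus fitted IC50.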
# HCT116 [2] = assay: viability inhibition vs untreated; higher = more cytotoxic; settings: 72 h
Compound,IC50 (HCT116 [1]; genotype: MTA1-KO) [µM],IC50 (HCT116 [1]; genotype: control) [µM],"viability inhibition (HCT116 [2]; genotype: MTA1-KO, 16 nM) [%]","viability inhibition (HCT116 [2]; genotype: MTA1-KO, 80 nM) [%]","viability inhibition (HCT116 [2]; genotype: MTA1-KO, 400 nM) [%]","viability inhibition (HCT116 [2]; genotype: MTA1-KO, 2000 nM) [%]","viability inhibition (HCT116 [2]; genotype: MTA1-KO, 10000 nM) [%]","viability inhibition (HCT116 [2]; genotype: control, 16 nM) [%]","viability inhibition (HCT116 [2]; genotype: control, 80 nM) [%]","viability inhibition (HCT116 [2]; genotype: control, 400 nM) [%]","viability inhibition (HCT116 [2]; genotype: control, 2000 nM) [%]","viability inhibition (HCT116 [2]; genotype: control, 10000 nM) [%]"
NN=C(N)N [Aminoguanidine hydrochloride],> 10,> 10,-22,-27.7,-23.9,-10.8,-13.7,-13.6,-11.1,-12.3,-13.1,-5.39
Cc1[nH]nc(C(F)(F)F)c1Cc1sc2c(c1C(=O)N1C[C@](C)(O)CO1)c(=O)n(C)c(=O)n2C(C)C [AZD3965],0.576,0.338,-7.19,25.1,22.9,31.7,47.6,0.727,24.8,21.6,40.3,45.9
COc1ccc(-c2ccc3c(N4CCOC[C@@H]4C)nc(N4CCOC[C@@H]4C)nc3n2)cc1CO [AZD8055],0.843,> 10,-21.9,-16.3,15.5,41.3,67.5,0.243,13.1,36.1,46.1,37.6
NCCCCN=C(N)N [Agmatine sulfate salt],8.87,> 10,-2.78,3.53,1.54,7.76,55.4,11.2,9.12,22.6,28.6,22.5
O=c1cc(O)c(Cl)c[nH]1 [Gimeracil],> 10,> 10,-16.5,-10.4,-7.69,-8.52,5.58,-1.24,-1.82,-11.8,-5.96,-7.24
CN(C)C1CCN(C(=O)c2ccc(NC(=O)Nc3ccc(-c4nc(N5CCOCC5)nc(N5CCOCC5)n4)cc3)cc2)CC1 [Gedatolisib],0.187,0.305,-5.92,17.3,63.7,80.1,82.8,19.9,26.7,68.6,88.3,103
CC[C@H](CC#N)OC(=O)N[C@@H](C)c1cccc(NC(=O)Nc2ccc(-c3cnco3)c(OC)c2)c1 [AVN944],0.311,0.131,5.16,4.61,58.7,80.9,93.7,-0.119,29.5,75.2,92.9,96.3
C#CCC(Cc1cnc2nc(N)nc(N)c2n1)c1ccc(C(=O)N[C@@H](CCC(=O)O)C(=O)O)cc1 (stereo partly specified) [Pralatrexate],0.022,< 0.016,37.5,71.4,71.7,75,77.3,52.4,77.9,78.8,80.6,79.1
S=C(N/N=C1/CCCc2cccnc21)N1CCN(c2ccccn2)CC1 [COTI2],0.246,1.07,5.92,0.177,50.3,49.7,67.4,8.87,-13.6,-3.5,87.4,88.4
NS(=O)(=O)c1cc2c(cc1C(F)(F)F)NC(Cc1ccccc1)NS2(=O)=O (stereo unspecified) [Bendroflumethiazide],> 10,> 10,-4.82,-2.33,-5.2,-12.6,-13.6,0.542,-1.18,-14.6,4.49,-9.53
O=C(O)c1cccnc1Nc1cccc(C(F)(F)F)c1 [Niflumic acid],> 10,> 10,-15.2,-17.4,-11.9,-15.8,-9.84,3.66,11.1,-0.91,-2.33,0.571
N[C@@H]1C[C@H]1c1ccccc1 [Tranylcypromine (2-PCPA) hydrochloride],> 10,> 10,-22.8,-17.9,-14.3,-18.2,-15.3,-0.159,-12.9,-1.62,-5.71,-28
Cc1cc(-c2nc(-c3ccc(OC(F)(F)F)cc3)no2)nn1Cc1ccnc(N2CCN(C3CC3)CC2)c1 [BAY 87-2243],> 10,< 0.016,21,24.5,21.4,19.2,19.2,86.8,72.7,68.2,67.4,70.2
Cc1nc(Nc2cnn(C3CCNCC3)c2)nc2c1N(C)C(=O)c1cc3ccccc3cc1N2C [HTH-01-015],7.99,> 10,-1.49,5.48,-1.32,5.37,62.5,2.33,10.7,23.3,17.9,40.7
c1cc(-c2cnn3cc(-c4ccc(OCCN5CCCCC5)cc4)cnc23)ccn1 [Dorsomorphin dihydrochloride],> 10,8.54,-1.27,-9.68,3.35,4.71,43.6,-2.17,-2.84,-1.4,7.12,55.1
CC(O)=C(C#N)C(=O)Nc1ccc(C(F)(F)F)cc1 [Teriflunomide],> 10,> 10,-20.1,-19.6,-22.5,-31.4,-28.2,12.8,-1.7,-4.62,-5.29,10.1
COc1ccc(Cc2cnc(N)nc2N)cc1OC [Diaveridine],> 10,> 10,9.72,-12.4,-14.2,-12.8,8.55,7.02,-9.3,-5.19,-12.6,10.2
O=C([O-])C(Cl)Cl.[Na+] [Sodium Dichloroacetate],> 10,> 10,-5.96,-6.01,-16.4,-11.2,11.1,-15.2,-8.93,-10.2,-22.3,-2.12
